Experimental data reported in patent US9079866B2, “Flap modulators” (JANSSEN PHARMACEUTICA NV, priority 2013, dated 2015).
Counter-ions that a name gives are not always drawn. Like-named read-outs stand apart in the source and are kept apart here.

Assays:
[1] = target: human FLAP (Homo sapiens (Human), UniProt P20292); assay: FLAP binding assay (HTRF format); details: HTRF format
How it was run: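 Samples were run in duplicate on each of two plates and the plate results averaged. Read-out is the HTRF signal ratio.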

[2] = tested on: leukotriene pathway in human whole blood (LTB4 levels); assay: Human whole blood assay (A23187-stimulated LTB4); format: cell-based; details: Homo sapiens, read-out: LTB4 IC50 1:1
How it was run: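 Heparinised human whole blood diluted 1:1 in RPMI, pre-incubated 15 min at 37° Celsius with compound, then stimulated with A23187 (7 μg/mL) for 30 min at 37° Celsius. Plasma LTB4 measured by immunoassay kit; IC50 from 4-parameter fit; single replicate per plate, at least one healthy donor.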

[3] = human whole blood diluted 1:1, A23187-stimulated
[4] = human FLAP wild type, average of two plates, duplicates
[5] = human whole blood diluted 1:1 in RPMI, A23187-stimulated LTB4

Sequence of human FLAP (P20292 whole entry): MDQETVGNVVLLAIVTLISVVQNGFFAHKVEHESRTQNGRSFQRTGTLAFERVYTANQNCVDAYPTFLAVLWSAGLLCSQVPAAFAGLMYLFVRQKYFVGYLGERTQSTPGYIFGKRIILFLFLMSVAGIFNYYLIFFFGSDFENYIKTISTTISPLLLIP

Compound	Ki ([1]; wild type FLAP) [nM]	IC50 [2, 3] [nM]	Ki [1, 4] [nM]	IC50 [2, 5] [nM]
Nc1cnc(-c2ccc(-c3cccnc3OC3CCC3)cc2F)cn1 [Example 405, 5-{4-[2-(Cyclobutyloxy)pyridin-3-yl]-2-fluorophenyl}pyrazin-2-amine]	100	2710		
C[C@H](O)CNS(=O)(=O)c1ccccc1-c1ccc(-c2cnc(N)nc2)nc1 [Example 688, 2-[6-(2-Aminopyrimidin-5-yl)pyridin-3-yl]-N-[(2S)-2-hydroxypropyl]benzenesulfonamide]	696	1180		
CCNS(=O)(=O)c1ccccc1-c1ccc(-c2cnc(N)nc2)nc1 [Example 683, 2-[6-(2-Aminopyrimidin-5-yl)pyridin-3-yl]-N-ethylbenzenesulfonamide trifluoroacetic acid salt]	602	280		
Nc1cnc(-c2ccc(-c3ccc(Br)cc3F)cc2F)cn1 [Example 696, 5-(4′-Bromo-2′,3-difluorobiphenyl-4-yl)pyrazin-2-amine]	~250	3270		
Nc1cnc(-c2ccc(-c3ccc(C(F)(F)F)cc3C(F)(F)F)cc2F)cn1 [Example 562, 5-[3-Fluoro-2′,4′-bis(trifluoromethyl)biphenyl-4-yl]pyrazin-2-amine]	55	226		
Nc1cnc(-c2ccc(-c3cccnc3S(=O)(=O)C3CC3)cc2F)cn1 [Example 829, 5-{4-[2-(Cyclopropylsulfonyl)pyridin-3-yl]-2-fluorophenyl}pyrazin-2-amine formic acid salt]	3.2	5.96		
Nc1cnc(-c2ccc(-c3ccccc3Sc3ncncc3N)cc2F)cn1 [Example 217, 4-{[4′-(5-Aminopyrazin-2-yl)-3′-fluorobiphenyl-2-yl]sulfanyl}pyrimidin-5-amine hydrochloride]			1	9
Nc1cnc(-c2ccc(-c3ccc(C(F)(F)F)cc3C=O)cc2F)cn1 [Example 604, 4′-(5-Aminopyrazin-2-yl)-3′-fluoro-4-(trifluoromethyl)biphenyl-2-carbaldehyde]	5	89.4		
Fc1cc(-c2ccccc2Oc2ncccn2)ccc1-c1cnc2[nH]ccc2c1 [Example 525, 5-[3-Fluoro-2′-(pyrimidin-2-yloxy)biphenyl-4-yl]-1H-pyrrolo[2,3-b]pyridine]	3	36		
N#Cc1cc(C(F)(F)F)ccc1-c1ccc(-c2cnc(N)cn2)c(F)c1 [Example 563, 4′-(5-Aminopyrazin-2-yl)-3′-fluoro-4-(trifluoromethyl)biphenyl-2-carbonitrile]	20	328		
CC(C)(C)NS(=O)(=O)c1ccccc1-c1ccc(-c2cnc3cc[nH]c3c2)c(F)c1 [Example 425, N-tert-Butyl-3′-fluoro-4′-(1H-pyrrolo[3,2-b]pyridin-6-yl)biphenyl-2-sulfonamide]	2	111		
Nc1cnc(-c2ccc(-c3ccccc3S(=O)(=O)NC[C@H](O)CO)cc2F)cn1 [Example 104, (S)-4′-(5-Aminopyrazin-2-yl)-N-(2,3-dihydroxypropyl)-3′-fluoro-[1,1′-biphenyl]-2-sulfonamide]			12	> 1000
CC(C)Oc1ncccc1-c1ccc(-c2cnc(N)cn2)c(F)c1 [Example 401, 5-{2-Fluoro-4-[2-(1-methylethoxy)pyridin-3-yl]phenyl}pyrazin-2-amine]	158	538		
Nc1cnc(-c2ccc(-c3ccccc3S(=O)(=O)N3CCC(c4c[nH]cn4)CC3)cc2F)cn1 [Example 164, 5-(3-Fluoro-2′-{[4-(1H-imidazol-4-yl)piperidin-1-yl]sulfonyl}biphenyl-4-yl)pyrazin-2-amine]			1	333
Nc1cnc(-c2ccc(-c3ccccc3S(=O)(=O)NC3CCc4ccccc43)cc2F)cn1 (stereo in doubt) [Example 22, (S)-4′-(5-Aminopyrazin-2-yl)-N-[(1S)-2,3-dihydro-1H-inden-1-yl]-3′-fluorobiphenyl-2-sulfonamide]			2	48
CCNS(=O)(=O)c1cc(C(F)(F)F)ccc1-c1ccc(-c2cnc(N)nc2)c(F)c1 [Example 327, 4′-(2-Aminopyrimidin-5-yl)-N-ethyl-3′-fluoro-4-(trifluoromethyl)biphenyl-2-sulfonamide]			2	39
Nc1cnc(-c2ccc(-c3ccccc3S(=O)(=O)N3CCNCC3)cc2F)cn1 [Example 46, 5-[3-Fluoro-2′-(piperazin-1-ylsulfonyl)biphenyl-4-yl]pyrazin-2-amine]			57	194
CS(=O)(=O)c1ccccc1-c1ccc(-c2cnc(N)cn2)c(F)c1 [Example 1, 5-[3-Fluoro-2′-(methylsulfonyl)biphenyl-4-yl]pyrazin-2-amine]			217	860

Compound	Ki ([1]; wild type FLAP) [nM]	IC50 [2, 3] [nM]	Ki [1, 4] [nM]	IC50 [2, 5] [nM]
Nc1cnc(-c2ccc(-c3ccccc3CSc3nccc(N)n3)cc2F)cn1 [Example 753, 2-({[4′-(5-Aminopyrazin-2-yl)-3′-fluorobiphenyl-2-yl]methyl}sulfanyl)pyrimidin-4-amine]	4.4	21.3		
Nc1cnc(-c2ccc(-c3ccccc3S(=O)(=O)C3CCS(=O)(=O)CC3)cc2F)cn1 [Example 241, 5-{2′-[(1,1-Dioxidotetrahydro-2H-thiopyran-4-yl)sulfonyl]-3-fluorobiphenyl-4-yl}pyrazin-2-amine]			15	61
CC(C)S(=O)(=O)c1ccccc1-c1ccc(-c2cnc(N)cn2)c(F)c1 [Example 199, 5-{3-Fluoro-2′-[(1-methylethyl)sulfonyl]biphenyl-4-yl}pyrazin-2-amine]			39	250
Nc1ncc(-c2ccc(-c3ccccc3S(=O)(=O)N3CC4(COC4)C3)cc2F)cn1 [Example 312, 5-(2′-(2-Oxa-6-azaspiro[3.3]heptan-6-ylsulfonyl)-3-fluoro-[1,1′-biphenyl]-4-yl)pyrimidin-2-amine]			262	376
Nc1cnc(-c2ccc(-c3ccc(C(F)(F)F)cc3C(=O)N3CCS(=O)(=O)CC3)cc2F)cn1 [Example 757, 5-{2′-[(1,1-Dioxidothiomorpholin-4-yl)carbonyl]-3-fluoro-4′-(trifluoromethyl)biphenyl-4-yl}pyrazin-2-amine]	5.2	16.2		
CC(C)(C)NC(=O)c1cc(C(F)(F)F)ccc1-c1ccc(-c2cnc(N)nc2)c(F)c1 [Example 794, 2-[4-(2-Aminopyrimidin-5-yl)-3-fluoro-phenyl]-N-tert-butyl-5-(trifluoromethyl)benzamide]	32.8	3940		
Nc1ncc(-c2ccc(-c3ccccc3S(=O)(=O)N3CCNC(=O)C3)cn2)cn1 [Example 687, 4-({2-[6-(2-Aminopyrimidin-5-yl)pyridin-3-yl]phenyl}sulonyl)piperazin-2-one]	740	3550		
CCNS(=O)(=O)c1ccccc1-c1ccc(-c2cnc(N)nc2)c(F)c1 [Example 295, 4′-(2-Aminopyrimidin-5-yl)-N-ethyl-3′-fluorobiphenyl-2-sulfonamide trifluoroacetic acid salt]			25	110
CC(C)S(=O)(=O)Nc1ccccc1-c1ccc(-c2cnc(N)cn2)c(F)c1 [Example 34, N-(4′-(5-Aminopyrazin-2-yl)-3′-fluoro-[1,1′-biphenyl]-2-yl)propane-2-sulfonamide]			31	334
CC(C)(C)NS(=O)(=O)c1ccccc1-c1ccc(-c2cnc(N)c(Cl)n2)c(F)c1 [Example 441, 4′-(5-Amino-6-chloropyrazin-2-yl)-N-tert-butyl-3′-fluorobiphenyl-2-sulfonamide]	1	6		
Nc1cncc(Sc2ccccc2-c2ccc(-c3cnc(N)nc3)c(F)c2)n1 [Example 336, 5-{2′-[(6-Aminopyrazin-2-yl)sulfanyl]-3-fluorobiphenyl-4-yl}pyrimidin-2-amine formate salt]			4	65
CC(C)(CO)NS(=O)(=O)c1ccccc1-c1ccc(-c2cnc(N)cn2)c(F)c1 [Example 100, 4′-(5-Aminopyrazin-2-yl)-3′-fluoro-N-(2-hydroxy-1,1-dimethylethyl)biphenyl-2-sulfonamide]			1	24
Nc1cnc(-c2ccc(-c3ccccc3S(=O)(=O)N[C@H](CO)c3ccccc3)cc2F)cn1 [Example 81, 4′-(5-Aminopyrazin-2-yl)-3′-fluoro-N-[(1S)-2-hydroxy-1-phenylethyl]biphenyl-2-sulfonamide]			6	152
CC(C)N(CCO)S(=O)(=O)c1ccccc1-c1ccc(-c2cnc(N)cn2)c(F)c1 [Example 141, 4′-(5-Aminopyrazin-2-yl)-3′-fluoro-N-(2-hydroxyethyl)-N-(1-methylethyl)biphenyl-2-sulfonamide]			1	3
Cc1nc(N)cc(Oc2ccccc2-c2ccc(-c3cnc(N)cn3)c(F)c2)n1 [Example 623, 6-{[4′-(5-Aminopyrazin-2-yl)-3′-fluorobiphenyl-2-yl]oxy}-2-methylpyrimidin-4-amine]	4.9	93.5		
Nc1cnc(-c2ccc(-c3ccccc3CS(N)(=O)=O)cc2F)cn1 [Example 230, 1-[4′-(5-Aminopyrazin-2-yl)-3′-fluorobiphenyl-2-yl]methanesulfonamide hydrochloride]			1200	5000
CC(C)(CO)NS(=O)(=O)c1ccccc1-c1ccc(-c2cnc(N)c(F)c2)c(F)c1 [Example 667, 4′-(6-Amino-5-fluoropyridin-3-yl)-3′-fluoro-N-(1-hydroxy-2-methylpropan-2-yl)-[1,1′-biphenyl]-2-sulfonamide]	6	39.6		
